Values of other authors in patent US20050101653A1, “Combination therapy for the treatment of migraine” (priority 1999, published 2005).

Test system: carotid vascular resistance
Settings: anaesthetized dog

CNS(=O)(=O)Cc1ccc2[nH]cc(CCN(C)C)c2c1 [Sumatriptan, sumatriptan]
effect on carotid vascular resistance: selective increase in carotid vascular resistance
